In patent US8449635B2, “Abrasive articles and methods for making same” (Saint-Gobain Abrasives, Inc., priority 2007, dated 2013):

Test: Solubility of photoinitiator
Type: physicochemical

Solubility (wt %): <5 wt %
Structure (SMILES): Cc1cc(C)c(C(=O)P(=O)(C(=O)c2c(C)cc(C)cc2C)c2ccccc2)c(C)c1 [Irgacure 819, bis(2,4,6-trimethylbenzoyl) phenyl phosphine oxide]
